Results: US20250108100A1, “C-TERMINAL FRAGMENT OF APOLIPOPROTEIN E AND APPLICATION THEREOF IN INHIBITING y-SECRETASE ACTIVITY” (SYNPHATEC (SHANGHAI) BIOPHARMACEUTICAL TECHNOLOGY CO., LTD., priority 2022, published 2025)

Columns and labels:
[1] = system: ADAM10, BACE1, PS1 and PS2; assay: mRNA (qRT-PCR) and protein (Western blot) expression of APP secretases in HEK 293T cells; assay type: cell-based, human; settings: qRT-PCR and Western blot, vs GFP control
Experimental: (§1) • a) A plasmid expressing the target protein in mammalian cells was constructed, and the protein expression promoter is CAG. • b) The target protein was expressed in HEK 293T cell line. Cells were subcultured one day before transfection, and transfection was performed when the degree of cell adhesion reached 70%-80%. The transfection reagent was lipofectamine2000 (ThermoFisher). • c) 4-6 hours post transfection, the medium were replaced with fresh cell culture medium. • d) 36-48 hours post transfection, the cells were lysed (10% 1M tris-HCl (pH=6.8), 4% SDS, 20% glycerol, 0.01% bromophenol blue), and the protein samples were collected and used for Western blot or stored in a −80° C. freezer. • e) Polyacrylamide gel electrophoresis. Before protein loading, the protein was boiled at 98° C. for 10 min, and then centrifuged at 12000 rpm for 10 min. Electrophoresis: 80V for the upper stacking gel; 120V for the lower separating gel. • f) Protein transfer. […]
Quantitect SYBR-Green qRT-PCR kit from Qiagen was used to quantitatively analyze the relative content of mRNA. qRT-PCR primers were listed in Table 2. […]

[2] = system: γ-secretase (PS1, PS2) knockout HEK 293T cells; assay: PS1 KO, PS2 KO and PS1/2 dKO HEK 293T cell lines: α-CTF and Aβ40; assay type: cell-based, human; settings: PS1 and PS2 double knockout HEK 293T cells
Experimental: as §1

[3] = Stability of ApoE2 in conditioned culture medium (Western blot); assay type: physicochemical; settings: 37° C.; 48 hours
Experimental: N=9. […] The original ApoE2-containing culture medium (lane 1), the ApoE2-containing culture medium after incubation with untransfected cells for 48 hours (lane 2), and the ApoE2-containing culture medium separately stored in a 37° C. incubator for 48 hours (lane 3). […] DAPI, nuclear marker. […] MAP2, marker of mature neurons; DAPI, nuclear marker.

ApoE2: human apolipoprotein E2, full-length 299 amino acid residues, SEQ ID NO: 12
mRNA and protein expression of ADAM10, BACE1, PS1 and PS2 [1]: not altered
α-CTF in PS1/2 dKO cells [2]: did not further increase α-CTF levels
stability in conditioned medium [3]: can exist stably
